Measured values: patent US20240025862A1, “SUBSTITUTED N-PHENYLURACILS AND SALTS THEREOF, AND USE THEREOF AS HERBICIDAL ACTIVE SUBSTANCES” (Bayer Aktiengesellschaft, priority 2020, published 2024)

How the values were obtained:
Assay type in all cases: in vivo
Oryza sativa (ORYSA) = assay: Post-emergence crop plant compatibility, greenhouse pot test (also comparative test C); details: vs untreated controls
Outline: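 Visual damage versus untreated plants (0% = like control, 100% = plants died) was scored about 3 weeks after a post-emergence spray in greenhouse pots. Treatment: one-leaf stage, WP or EC in water at 600 l/ha with 0.5% additive; a/b/c mark different dosages on the same crop.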

[1] = test system: Echinochloa crus-galli (ECHCG); assay: Post-emergence herbicidal action, greenhouse pot test (also comparative test C); details: for Post-emergence action at 1.25 g/ha against ECHCG in %: rated visually after about 3 weeks vs untreated controls, 100% = plants have died
Outline: (§1)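 Green parts of one-leaf-stage plants are sprayed at 600 l/ha with formulated compound plus 0.5% additive, then kept under optimum greenhouse conditions for about 3 weeks. Damage is scored visually, where 100% means dead plants and 0% means no difference from controls.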

Setaria viridis (SETVI) = assay: as above; details: for Post-emergence action against SETVI: 20 g/ha
Outline: as §1

[2] = test system: Alopecurus myosuroides (ALOMY); assay: as above; details: rated visually after about 3 weeks vs untreated controls, 100% = plants have died
Outline: as §1

[3] = test system: Matricaria inodora (MATIN); assay: as above
Outline: as §1

Zea mays (ZEAMX) = assay: Post-emergence crop plant compatibility, greenhouse pot test; details: 1.25 g/ha, vs untreated controls
Outline: (§2)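 Visual % damage vs untreated controls, scored ~3 weeks post-spray (100% = dead, 0% = as control). Plants in sandy loam, greenhouse; treated at one-leaf stage, 2–3 wk after sowing. WP/EC, aqueous, 0.5% additive, 600 l/ha. Suffixes a/b/c = different dosages.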

[4] = test system: Triticum aestivum (TRZAS); assay: as above; details: vs untreated controls
Outline: as §2

Veronica persica (VERPE) = assay: Post-emergence herbicidal action, greenhouse pot test
Outline: (§3)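 Activity was scored by eye about 3 weeks after treatment against untreated plants, where 100% means dead plants and 0% means no difference. Plants at the one-leaf stage received a foliar spray of WP or EC formulations in water plus 0.5% additive (600 l/ha, up to 20 g/ha). Plants were grown in sandy loam pots in a greenhouse for 2–3 weeks before spraying.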

[5] = test system: Abutilon theophrasti (ABUTH); assay: as above; details: rated visually after about 3 weeks vs untreated controls, 100% = plants have died
Outline: as §3

Avena fatua (AVEFA) = assay: as above; details: 20 g/ha, rated visually after about 3 weeks vs untreated controls, 100% = plants have died
Outline: as §3

[6] = test system: Polygonum convolvulus (POLCO); assay: as above
Outline: as §3

Viola tricolor (VIOTR) = assay: as above
Outline: as §3

[7] = test system: Amaranthus retroflexus (AMARE); assay: as above; details: rated visually after about 3 weeks vs untreated controls, 100% = plants have died
Outline: as §3

Lolium rigidum (LOLRI) = assay: as above; details: dosage 20 g/ha
Outline: as §3

[8] = test system: Pharbitis purpurea (PHBPU); assay: as above
Outline: as §3

| Post-emergence action against ORYSA (crop plant compatibility) (Oryza sativa (ORYSA); 1.25 g/ha) [%] | Post-emergence action against ZEAMX (crop plant compatibility) (Zea mays (ZEAMX)) [%] | Post-emergence action against TRZAS (crop plant compatibility) ([4]; 1.25 g/ha) [%] | Compound | Post-emergence action against ECHCG in % ([1]; dosage 5 g/ha) [%] | Post-emergence action against ECHCG in % ([1]; dosage 20 g/ha) [%] | Post-emergence action against SETVI (Setaria viridis (SETVI)) [%] | Post-emergence action against SETVI in % (Setaria viridis (SETVI); dosage 1.25 g/ha) [%] | Post-emergence action against SETVI in % (Setaria viridis (SETVI); dosage 5 g/ha) [%] | Post-emergence action at 20 g/ha against ALOMY in % [2] [%] | Post-emergence action against MATIN in % ([3]; dosage 5 g/ha) [%] | Post-emergence action against MATIN in % ([3]; dosage 20 g/ha) [%] | Post-emergence action against VERPE (Veronica persica (VERPE); 1.25 g/ha) [%] | Post-emergence action against VERPE (Veronica persica (VERPE); 5 g/ha) [%] | Post-emergence action against VERPE (Veronica persica (VERPE); 20 g/ha) [%] | Post-emergence action at 1.25 g/ha against ABUTH in % [5] [%] | Post-emergence action at 5 g/ha against ABUTH in % [5] [%] | Post-emergence action at 20 g/ha against ABUTH in % [5] [%] | Post-emergence action at 20 g/ha against AVEFA in % (Avena fatua (AVEFA)) [%] | Post-emergence action against POLCO in % ([6]; dosage 5 g/ha) [%] | Post-emergence action against POLCO in % ([6]; dosage 20 g/ha) [%] | further results |
| --- | --- | --- | --- | --- | --- | --- | --- | --- | --- | --- | --- | --- | --- | --- | --- | --- | --- | --- | --- | --- | --- |
| 0 | 20 | 10 | Cn1c(C(F)(F)F)cc(=O)n(-c2cc(Oc3ccccc3OCC(=O)OCC3CCOC3)c(Cl)cc2F)c1=O (stereo not drawn) [I.7-72] | 100 | 100 | 100 | 100 | 100 | 100 | 100 | 100 | 90 | 100 | 100 | 100 | 100 | 100 | 100 | 100 | 100 | Post-emergence action at 1.25 g/ha against ECHCG in % [1]: 80%; Post-emergence action against POLCO in % ([6]; dosage 1.25 g/ha): 80%; Post-emergence action against VIOTR (Viola tricolor (VIOTR); 1.25 g/ha): 100%; Post-emergence action against VIOTR (Viola tricolor (VIOTR); 5 g/ha): 100%; Post-emergence action against VIOTR (Viola tricolor (VIOTR); 20 g/ha): 100%; Post-emergence action at 1.25 g/ha against AMARE in % [7]: 100%; Post-emergence action at 5 g/ha against AMARE in % [7]: 100%; Post-emergence action at 20 g/ha against AMARE in % [7]: 100%; Post-emergence action against LOLRI in % (Lolium rigidum (LOLRI)): 80%; Post-emergence action against PHBPU in % ([8]; dosage 1.25 g/ha): 100%; Post-emergence action against PHBPU in % ([8]; dosage 5 g/ha): 100%; Post-emergence action against PHBPU in % ([8]; dosage 20 g/ha): 100% |
| 0 | 0 | 0 | Cn1c(C(F)(F)F)cc(=O)n(-c2cc(Oc3ccccc3OCC(=O)OCCC#N)c(Cl)cc2F)c1=O [I.7-179] | 100 | 100 | 100 | 100 | 100 | 100 | 100 | 100 | 100 | 100 | 100 | 100 | 100 | 100 | 80 | 100 | 100 | Post-emergence action against MATIN in % ([3]; dosage 1.25 g/ha): 80%; Post-emergence action against TRZAS (crop plant compatibility) ([4]; 5 g/ha): 0%; Post-emergence action against VIOTR (Viola tricolor (VIOTR); 1.25 g/ha): 100%; Post-emergence action against VIOTR (Viola tricolor (VIOTR); 5 g/ha): 100%; Post-emergence action against VIOTR (Viola tricolor (VIOTR); 20 g/ha): 100%; Post-emergence action at 1.25 g/ha against AMARE in % [7]: 100%; Post-emergence action at 5 g/ha against AMARE in % [7]: 100%; Post-emergence action at 20 g/ha against AMARE in % [7]: 100%; Post-emergence action against LOLRI in % (Lolium rigidum (LOLRI)): 100%; Post-emergence action against PHBPU in % ([8]; dosage 1.25 g/ha): 100%; Post-emergence action against PHBPU in % ([8]; dosage 5 g/ha): 100%; Post-emergence action against PHBPU in % ([8]; dosage 20 g/ha): 100% |
| 0 | 20 | 20 | COCCOC(=O)COc1ccccc1Oc1cc(-n2c(=O)cc(C(F)(F)F)n(C)c2=O)c(F)cc1Br [I.8-1] | 100 | 100 | 100 | 100 | 100 | 100 | 100 | 100 | 100 | 100 | 100 | 100 | 100 | 100 | 80 | 100 | 100 | Post-emergence action against ORYSA (crop plant compatibility) (Oryza sativa (ORYSA); 5 g/ha): 20%; Post-emergence action at 1.25 g/ha against ECHCG in % [1]: 80%; Post-emergence action at 5 g/ha against ALOMY in % [2]: 100%; Post-emergence action against MATIN in % ([3]; dosage 1.25 g/ha): 100%; Post-emergence action against POLCO in % ([6]; dosage 1.25 g/ha): 90%; Post-emergence action against VIOTR (Viola tricolor (VIOTR); 1.25 g/ha): 100%; Post-emergence action against VIOTR (Viola tricolor (VIOTR); 5 g/ha): 100%; Post-emergence action against VIOTR (Viola tricolor (VIOTR); 20 g/ha): 100%; Post-emergence action at 1.25 g/ha against AMARE in % [7]: 100%; Post-emergence action at 5 g/ha against AMARE in % [7]: 100%; Post-emergence action at 20 g/ha against AMARE in % [7]: 100%; Post-emergence action against LOLRI in % (Lolium rigidum (LOLRI)): 80%; Post-emergence action against PHBPU in % ([8]; dosage 1.25 g/ha): 100%; Post-emergence action against PHBPU in % ([8]; dosage 5 g/ha): 100%; Post-emergence action against PHBPU in % ([8]; dosage 20 g/ha): 100% |
| 20 | 20 | 20 | Cn1c(C(F)(F)F)cc(=O)n(-c2cc(Oc3ccccc3OCC(=O)OCc3ccccn3)c(Br)cc2F)c1=O [I.8-276] | 100 | 100 | 100 | 100 | 100 | 100 | 80 | 100 | 100 | 100 | 100 | 100 | 100 | 100 | 80 | 100 | 100 | Post-emergence action at 5 g/ha against ALOMY in % [2]: 80%; Post-emergence action against MATIN in % ([3]; dosage 1.25 g/ha): 80%; Post-emergence action against TRZAS (crop plant compatibility) ([4]; 5 g/ha): 20%; Post-emergence action against VIOTR (Viola tricolor (VIOTR); 1.25 g/ha): 100%; Post-emergence action against VIOTR (Viola tricolor (VIOTR); 5 g/ha): 100%; Post-emergence action against VIOTR (Viola tricolor (VIOTR); 20 g/ha): 100%; Post-emergence action at 1.25 g/ha against AMARE in % [7]: 100%; Post-emergence action at 5 g/ha against AMARE in % [7]: 100%; Post-emergence action at 20 g/ha against AMARE in % [7]: 100%; Post-emergence action against LOLRI in % (Lolium rigidum (LOLRI)): 100%; Post-emergence action against PHBPU in % ([8]; dosage 1.25 g/ha): 100%; Post-emergence action against PHBPU in % ([8]; dosage 5 g/ha): 100%; Post-emergence action against PHBPU in % ([8]; dosage 20 g/ha): 100% |
